Laboratory results taken from ChEMBL document CHEMBL4665707, “Lung Protection by Cathepsin C Inhibition: A New Hope for COVID-19 and ARDS?” (J Med Chem, 2020).

Assays:
Dipeptidyl peptidase 1 = Dipeptidyl peptidase 1 (Homo sapiens, UniProt P53634); experiment: Inhibition of human cathepsin C
[1] = Reduction in whole blood neutrophil elastase activity in healthy human subjects at 40 mg dosed daily via oral route; format: functional
[2] = Reduction in whole blood neutrophil elastase activity in healthy human subjects at 25 mg dosed daily via oral route; format: functional
[3] = Reduction in whole blood neutrophil elastase activity in healthy human subjects at 10 mg dosed daily via oral route; format: functional

Sequence of Dipeptidyl peptidase 1 (P53634 25-134 limits assumed): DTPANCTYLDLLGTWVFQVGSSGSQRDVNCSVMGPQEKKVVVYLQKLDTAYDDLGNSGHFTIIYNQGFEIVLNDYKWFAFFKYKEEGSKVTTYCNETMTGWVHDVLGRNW
Sequence of Dipeptidyl peptidase 1 (P53634 231-394 limits assumed): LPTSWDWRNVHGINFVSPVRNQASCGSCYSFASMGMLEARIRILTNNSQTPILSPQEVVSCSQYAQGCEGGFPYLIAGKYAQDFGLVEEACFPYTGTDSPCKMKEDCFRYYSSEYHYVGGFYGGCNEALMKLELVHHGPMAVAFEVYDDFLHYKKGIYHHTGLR
Sequence of Dipeptidyl peptidase 1 (P53634 395-463 limits assumed): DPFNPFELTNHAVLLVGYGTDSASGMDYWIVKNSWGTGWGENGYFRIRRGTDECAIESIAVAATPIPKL

SMILES | IC50 (Dipeptidyl peptidase 1) [nM] | inhibition (INH) [1] [%] | inhibition (INH) [2] [%] | inhibition (INH) [3] [%]
CC[C@H](N)C(=O)N[C@]1(C#N)C[C@@H]1c1ccc(-c2ccc(S(=O)(=O)N3CCN(C)CC3)cc2)cc1 | 15 |  |  | 
Cn1c(=O)oc2ccc(-c3ccc(C[C@@H](C#N)NC(=O)[C@@H]4CNCCCO4)cc3)cc21 [BRENSOCATIB] |  | 59 | 49 | 30
